Test results as given in patent US6710030B1, “Contortrostain (CN) and methods for its use in preventing metastasis and other conditions” (University of Southern California, priority 1993, dated 2004).
pIC50: −log10 of the molar value. Values joined by “and” are separate entries in the source; they are usually repeats but may differ in a detail not shown here. Identical values can stand only once.

Key:
MDA-MB-435 cells [1] = experiment: Binding of MDA-MB-435 cells to immobilized CN; assay type: cell-based, human; conditions: CN at 0.1 μg/well; read-out: IC50 for blocking binding of MDA-MB-435 cells to immobilized CN
Experimental: The effect of CN on binding of highly metastatic human breast cancer cells, MDA-MB-435 cell line, to ECM proteins was examined. Human fibronectin and vitronectin were immobilized in the wells of 96-well microtiter plates. […] In a variation of the above experiments, CN was immobilized. […] Referring to FIGS. 12 and 13, varying concentrations of GRGDSP (FIG. 12) or EDTA (FIG. 13) were used to inhibit binding of human mammary carcinoma cells to immobilized CN. CN was at 0.1 μg/well. The vertical line at each data point indicates the y-axis error bar. All experiments were conducted as three sets of triplicates for each data point.

T24 cells = experiment: Phosphotyrosine immunoblot, T24 cells; assay type: cell-based, human; conditions: pretreated 30 min, 10 nM contortrostatin
Experimental: (§1) Cell culture, preparation and stimulation—T24 cells were maintained in RPMI 1640 medium containing 5% fetal bovine serum, and MDA-MB-435 and 293 cells were maintained in Dulbecco's modified Eagle's medium with 10% serum at 37° C. in 5% CO2. Cells were washed with phosphate-buffered saline (PBS) and starved in the appropriate serum-free medium for 6 h at 37° C. Cells were detached by brief treatment with 0.05% trypsin/0.02% EDTA in PBS and collected by centrifugation, resuspended in soybean trypsin inhibitor (1 mg/ml in serum-free medium), and washed in 2% bovine serum albumin/serum-free medium. Cells were maintained in suspension for 1 h in 2% bovine serum albumin/serum-free medium at 37° C. with end-over-end agitation. Quiescent cells (3×10^6/ml) were treated with disintegrins or other reagents while in suspension, or were allowed to adhere to Matrigel (Becton Dickinson, Bedford, Mass.) diluted 1:100 with serum-free medium during treatment.
Lysate preparation and immunoprecipitation—Suspended and adherent cells were washed twice with cold PBS and lysed in cold lysis buffer (50 mM Tris, pH 8.0, 150 mM NaCl, 1% Nonidet P-40, 0.5% deoxycholate, 0.1% SDS, protease inhibitor cocktail, 1 mM sodium pyrophosphate, 1 mM sodium orthovanadate, 50 mM sodium fluoride). […]

MDA-MB-435 cells [2] = experiment: Phosphotyrosine immunoblot, MDA-MB-435 cells; assay type: cell-based, human
Experimental: as §1
Lysate preparation and immunoprecipitation—Suspended and adherent cells were washed twice with cold PBS and lysed in cold lysis buffer (50 mM Tris, pH 8.0, 150 mM NaCl, 1% Nonidet P-40, 0.5% deoxycholate, 0.1% SDS, protease inhibitor cocktail, 1 mM sodium pyrophosphate, 1 mM sodium orthovanadate, 50 mM sodium fluoride). After 10-15 min incubation on ice, insoluble material was removed by centrifugation at 14,000 RPM in a microcentrifuge for 15 min. Supernatants were collected and total protein concentrations standardized by the BCA protein assay (Pierce, Rockford, Ill.). Immunoprecipitation was carried out by incubating whole cell lysates (200 μg total protein) with 1.25 μg anti-FAK or anti-CAS mAb 4-6 h at 4° C. followed by 20 μl protein G-agarose overnight at 4° C. Immunoprecipitates were washed 4 times in lysis buffer without inhibitors and dissociated by adding SDS-PAGE sample buffer and boiling 5 min. Whole cell lysates (30 μg total protein) or immunoprecipitates were resolved by 7.5% SDS-polyacrylamide gel electrophoresis and transferred to nitrocellulose membranes. […]

[3] = system: canine carotid artery thrombosis model; experiment: Reoccluding canine carotid artery thrombosis model; assay type: in vivo
Excerpt: The model of carotid artery thrombosis in the anesthetized canine described is a modification of one developed for the study of experimentally-induced coronary artery thrombosis [Romson, J. L. et al., Thromb. Res. 17:841 (1980)]. The experimental procedure results in the formation of a platelet rich intravascular thrombus at the site of an electrolytically-induced endothelial lesion in proximity to a distal arterial stenosis. The carotid artery is selected for the experimental model, thereby allowing one vessel to be used as a control and the other to be used after administration of the thrombolytic and antithrombotic therapy. APSAC (anisoylated plasminogen streptokinase activator complex) has been used as the thrombolytic agent successfully in this model. […] The lytic-antithrombotic combination of agents may then be administered to only one of the occluded vessels; this allows for an internal control and eliminates those animals that may not form thrombi due to causes unrelated to the vessel wall injury and subsequent occlusive thrombus formation, i.e., low circulating platelet counts, enhanced spontaneous thrombolysis, presence of heart worms, etc. Parameters which are recorded include repeated measures of: phasic and mean carotid artery blood flow velocity using an ultrasonic flow probe, time to thrombotic occlusion, time to recannulization, ex vivo platelet aggregation, prothrombin time, thrombin time, activated partial thromboplastin time, red cell and white cell counts, hematocrit, EKG profile and body temperature, before and after administration of APSAC or APSAC plus CN to separate groups of animals.
Conditioned male mongrel dogs (8-10 kg) have been used for all in vivo studies. Dogs are anesthetized with sodium pentobarbital, intubated and allowed to breath room air under positive pressure respiration. Arterial blood gasses and pH determinations are made every 45 minutes and appropriate adjustments made to maintain the blood gasses and arterial pH within normal limits. Both common carotid arteries and the right internal jugular vein are exposed. A catheter is inserted into the jugular vein for blood sampling and administration of the test drug. Arterial blood pressure is monitored from the cannulated femoral artery with the use of a blood pressure transducer. A Doppler flow probe is placed on each common carotid artery proximal to both the point of insertion of the intraarterial electrode and the mechanical constrictor. […] Blood flow velocity in the carotid vessels is monitored continuously. […]
Electrolytic injury to the intimal surface of each carotid vessel is accomplished with the use of an intravascular electrode. […] The current delivered to each vessel is monitored continuously and maintained at 300 μA. […]

platelets = conditions: measured by e.g. serotonin release from dense granules; cited from earlier work
[4] = system: acute thrombotic reocclusion; conditions: added to heparin plus tPA; cited from earlier work
[5] = system: coronary artery thrombosis; conditions: with recombinant tPA and heparin; cited from earlier work

## O=C(O)CN(CCN(CC(=O)O)CC(=O)O)CC(=O)O [EDTA]
MDA-MB-435 cells [1]
  pIC50: 3.10

## Cc1ccc(-c2nn(C(C)(C)C)c3ncnc(N)c23)cc1 [PP1, reference compound]
T24 cells
  concentration for complete elimination of contortrostatin-induced signals: 100 µM
MDA-MB-435 cells [2]; pretreated 30 min, 10 nM contortrostatin
  concentration for complete inhibition of contortrostatin-induced tyrosine phosphorylation: 10 µM

## anisoylated plasminogen streptokinase activator complex [APSAC]
[3]; Dog # 1-6, listed as APSAC Control
  RCA Thrombus, weight of residual thrombus, individual dog: 27.3 mg and 47.6 mg and 90.5 mg and 60.1 mg and 67.5 mg and 78.5 mg
[3]; dog, in vivo
  carotid artery patency after infusion: reoccluded and remained closed for the duration of the study
[3]; group mean
  RCA Thrombus, weight of residual thrombus, Mean: 61.9 mg
  Thrombus weight per kg (dog weight): 4.1

## applaggin
platelets
  platelet release: also inhibits platelet release

## echistatin (QCESGPCCRNCKFLKEGTICKRARGDDMDDYCNGKTCDCPRNPHKGPAT) [reference compound]
[4]
  incidence of acute thrombotic reocclusion: dramatic reductions in the incidence of acute thrombotic reocclusion
MDA-MB-435 cells [2]; 1 μM, added simultaneously, 10 min
  effect on contortrostatin (10 nM)-induced tyrosine phosphorylation: completely abrogated
MDA-MB-435 cells [2]; concentrations up to 1 μM
  effect alone on tyrosine phosphorylation: no effect on tyrosine phosphorylation

## kistrin
[5]
  effective dose sufficient to prevent reocclusion: 4 µg/kg/min
